#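 These data come from cells grown in 96-well plates and exposed to compound for 48 hours at five concentrations. The concentration for 50% growth inhibition is given as GI50. TGI: concentration producing complete growth inhibition.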
# How the values were obtained:
# Test in all cases: NCI-60 cell line screen, 48 h
# DU-145 prostate = system: DU-145 prostate
# TK-10 renal = system: TK-10 renal
# UACC-62 melanoma = system: UACC-62 melanoma
# ACHN renal = system: ACHN renal
# SN12C renal = system: SN12C renal
# 786-0 renal = system: 786-0 renal
# SR leukemia = system: SR leukemia
# BT-549 breast = system: BT-549 breast
# NCI-H23 lung = system: NCI-H23 lung
# U251 CNS = system: U251 CNS
Structure (SMILES),GI50 (DU-145 prostate) [µM],TGI (DU-145 prostate) [µM],GI50 (TK-10 renal) [µM],TGI (TK-10 renal) [µM],GI50 (UACC-62 melanoma) [µM],TGI (UACC-62 melanoma) [µM],GI50 (ACHN renal) [µM],TGI (ACHN renal) [µM],GI50 (SN12C renal) [µM],TGI (SN12C renal) [µM],GI50 (786-0 renal) [µM],TGI (786-0 renal) [µM],GI50 (SR leukemia) [µM],TGI (SR leukemia) [µM],GI50 (BT-549 breast) [µM],TGI (BT-549 breast) [µM],GI50 (NCI-H23 lung) [µM],TGI (NCI-H23 lung) [µM],GI50 (U251 CNS) [µM],TGI (U251 CNS) [µM]
CN(C)c1ccc(/C=C/C(=O)c2ccc(Nc3nc(Nc4ccc(F)cc4)nc(Nc4ccc(Cl)cc4)n3)cc2)cc1,5.5,27,11.3,81.3,14,37.9,6.13,> 100,15.3,> 100,2.71,14.1,1.06,3.67,7.39,55.7,5.95,39.5,7.66,70.6
COc1c(C)cnc(Cn2cnc3c(Cl)nc(N)nc32)c1C,0.0701,> 100,0.0884,> 100,0.301,6.95,0.289,> 100,0.336,> 100,0.937,> 100,0.117,> 100,1.43,> 100,0.262,19.8,0.415,> 100
C=CC(=O)N1CC[C@@H](Oc2nc(Nc3ccc(N4CCC(N5CCN(C)CC5)CC4)cc3)c(C(N)=O)nc2CC)C1,> 100,> 100,> 100,> 100,> 100,> 100,> 100,> 100,> 100,> 100,> 100,> 100,> 100,> 100,> 100,> 100,> 100,> 100,> 100,> 100
Cc1cccc(NC(=O)c2sc3nc4c(cc3c2N)CCC4)c1C,0.407,13.9,0.74,26.5,0.267,21,0.951,36.7,0.888,> 100,0.367,14.3,0.191,10.2,0.443,23.5,0.749,> 100,0.457,15.8
COC(=O)c1cc2c([nH]c3ccccc32)c(-c2nc3cc(N(S(=O)(=O)c4ccc(C)cc4)S(=O)(=O)c4ccc(C)cc4)c(OC)cc3cc2CO)n1,> 100,> 100,> 100,> 100,> 100,> 100,> 100,> 100,> 100,> 100,32.1,87.8,1.28,3.48,> 100,> 100,> 100,> 100,59.5,> 100
COc1cc(OC)c(-c2oc3ccccc3c(=O)c2O)c(OC)c1,,> 100,,> 100,,> 100,,> 100,,> 100,,> 100,,> 100,,> 100,,> 100,,> 100
CC[N+]1(C)CCC(O)(/C=C/c2ccccc2)C(C(=O)/C=C/c2ccccc2)C1 (stereo not given),,39.1,,18.3,,33.4,,25.4,,18,,13.9,,6.68,,34.5,,35,,22.5

# From PubChem BioAssay (NCI)
